The test addresses T1, human mAChR M1 (Homo sapiens, UniProt P11229).
T1 construct: hM1 and hM4 cDNAs were purchased from Missouri S&T cDNA Resource; host or cells: CHO-K1 cells, stably transfected with Lipofectamine2000
T1 sequence (P11229 1-460): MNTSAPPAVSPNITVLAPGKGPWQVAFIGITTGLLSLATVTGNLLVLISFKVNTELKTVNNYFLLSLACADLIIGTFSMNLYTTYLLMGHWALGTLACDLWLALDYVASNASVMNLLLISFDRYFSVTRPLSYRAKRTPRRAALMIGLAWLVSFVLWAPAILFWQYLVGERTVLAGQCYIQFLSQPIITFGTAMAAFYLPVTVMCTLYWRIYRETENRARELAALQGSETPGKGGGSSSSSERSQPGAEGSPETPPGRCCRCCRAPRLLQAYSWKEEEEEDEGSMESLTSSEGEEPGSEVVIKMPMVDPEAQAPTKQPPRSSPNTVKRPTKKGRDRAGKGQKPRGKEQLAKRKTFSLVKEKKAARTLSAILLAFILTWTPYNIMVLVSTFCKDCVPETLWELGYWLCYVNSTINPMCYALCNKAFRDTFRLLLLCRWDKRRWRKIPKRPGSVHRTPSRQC
As to the kind of experiment: mAChR M1 cell-based functional assay (calcium mobilization, PAM mode, EC20 acetylcholine). Particulars: CHO-K1 cells expressing hM1, calcium flux (Fluo-4); for Emax: EC20 acetylcholine response; for EC50: concentration-dependent increase in the EC20 acetylcholine response. From the text:
Chinese hamster ovary (CHO-K1) cells stably expressing rat (r)M1 were purchased from the American Type Culture Collection and cultured according to their indicated protocol. CHO cells stably expressing human (h)M2, hM3, and hM5 were described previously (Levey, et al., 1991); hM1 and hM4 cDNAs were purchased from Missouri S&T cDNA Resource; rM4 cDNA was provided by T. I. Bonner (National Institutes of Health, Bethesda, Md.). rM2 and rM3 were cloned from a rat brain cDNA library and sequence verified. hM1, rM2, rM3, hM4, and rM4 cDNAs were used to stably transfect CHO-K1 cells purchased from the American Type Culture Collection using Lipofectamine2000. To make stable rM2, hM2, rM3, hM4, and rM4 cell lines for use in calcium mobilization assays, these cells also were stably transfected with a chimeric G-protein (Gqi5) (provided by B. R. Conklin, University of California, San Francisco) using Lipofectamine 2000. rM1, hM1, rM3, hM3, rM5, and hM5 cells were grown in Ham's F-12 medium containing 10% heat-inactivated fetal bovine serum (FBS), 20 mM HEPES, and 50 µg/mL G418 sulfate. rM2-Gqi5, hM2-Gqi5, and hM4-Gqi5 cells were grown in the same medium also containing 500 μg/mL Hygromycin B. Stable rM4-Gqi5 cells were grown in DMEM containing 10% heat-inactivated FBS, 20 mM HEPES, 400 μg/mL G418 sulfate, and 500 μg/mL Hygromycin B.
For high throughput measurement of agonist-evoked increases in intracellular calcium, CHO-K1 cells stably expressing muscarinic receptors were plated in growth medium lacking G418 and hygromycin at 15,000 cells/20 μL/well in Greiner 384-well black-walled, tissue culture (TC)-treated, clear-bottom plates (VWR). Cells were incubated overnight at 37° C. and 5% CO2. The next day, cells were washed using an ELX 405 (BioTek) with four washes (80 μL) of assay buffer then aspirated to 20 μL. Next, 20 μL of 16 μM Fluo-4/acetoxymethyl ester (Invitrogen, Carlsbad, Calif.) prepared as a 2.3 mM stock in DMSO and mixed in a 1:1 ratio with 10% (w/v) Pluronic F-127 and diluted in assay buffer was added to the wells and the cell plates were incubated for 50 min at 37° C. and 5% CO2. Dye was removed by washing with the ELX 405 (four 80 μL washes of assay buffer) then aspirated to 20 μL. Compound master plates were formatted in an 11 point CRC format (1:3 dilutions) in 100% DMSO with a starting concentration of 10 mM using the BRAVO liquid handler (Agilent). Test compound CRCs were then transferred to daughter plates (240 nL) using the Echo acoustic plate reformatter (Labcyte, Sunnyvale, Calif.) and then diluted into assay buffer (40 μL) to a 2× stock using a Thermo Fisher Combi (Thermo Fisher Scientific, Waltham, Mass.).
Calcium flux was measured using the Functional Drug Screening System (FDSS) 6000 (Hamamatsu Corporation, Tokyo, Japan) as an increase in the fluorescent static ratio. Compounds were applied to cells (20 μL, 2×) using the automated system of the FDSS 6000 at 4 s into the 300 s protocol and the data were collected at 1 Hz. […] Agonist activity was analyzed as a concentration-dependent increase in calcium mobilization upon compound addition. Emax values for agonist activity are expressed relative to the maximum for acetylcholine. Positive allosteric modulator activity was analyzed as a concentration-dependent increase in the EC20 acetylcholine response. Antagonist activity was analyzed as a concentration-dependent decrease in the […] acetylcholine response. Concentration-response curves were generated using a four-parameter logistical equation in XLfit curve fitting software (IDBS, Bridgewater, N.J.) for Excel (Microsoft, Redmond, Wash.) or Prism (GraphPad Software, Inc., San Diego, Calif.).
Activity (EC50 and Emax) was determined in the mAChR M1 cell-based functional assay as described above and the data are shown in Table 2. The compound numbers correspond to the compound numbers used in Table 1.
(In general: Calcium flux is commonly read through the fluorescence of an indicator in the cells.)

By Emax is commonly meant the greatest response seen or fitted, relative to the assay's reference. For orientation: EC50 means the concentration that produces a half-maximal response. Take `Cn1cc2c(-c3cc(F)c(Cc4cc(C(=O)N[C@H]5CCOC[C@@H]5O)c5ncccc5c4)c(F)c3)cccc2n1` [compound 21, 6-[[2,6-difluoro-4-(2-methylindazol-4-yl)phenyl]methyl]-N-[(3R,4S)-3-hydroxytetrahydropyran-4-yl]quinoline-8-carboxamide]: the maximum response (Emax) worked out at 67% and the concentration for a half-maximal effect (EC50) was 3140 nM. As to `Cn1cc2c(-c3cc(F)c(Cc4cc(C(=O)N[C@H]5CCCC[C@@H]5O)c5ncccc5c4)c(F)c3)cccc2n1` [compound 22, 6-[[2,6-difluoro-4-(2-methylindazol-4-yl)phenyl]methyl]-N-[(1S,2S)-2-hydroxycyclohexyl]quinoline-8-carboxamide], the Emax was 42% and the half-maximal effective concentration (EC50) stood at 5710 nM. For `Cc1c(Cc2ccc(-n3cccn3)cc2)cc(C(=O)N[C@H]2CCOC[C@@H]2O)c2ncccc12` [compound 23, N-[(3R,4S)-3-hydroxytetrahydropyran-4-yl]-5-methyl-6-[(4-pyrazol-1-ylphenyl)methyl]quinoline-8-carboxamide], the Emax amounted to 77% and the EC50 is 108 nM. `Cc1c(Cc2ccc(-n3cccn3)cc2)cc(C(=O)N[C@H]2CCCCC[C@@H]2O)c2ncccc12` [compound 24, N-[(1S,2S)-2-hydroxycycloheptyl]-5-methyl-6-[(4-pyrazol-1-ylphenyl)methyl]quinoline-8-carboxamide]: the Emax was 66%. As to `Cc1c(Cc2ccc(-n3cccn3)cc2)cc(C(=O)N[C@H]2CCCC[C@@H]2O)c2ncccc12` [compound 25, N-[(1S,2S)-2-hydroxycyclohexyl]-5-methyl-6-[(4-pyrazol-1-ylphenyl)methyl]quinoline-8-carboxamide], the Emax stood at 81% and the EC50 is 386 nM. The corresponding values for `Cc1c(Cc2ccc(-n3cccn3)cc2)cc(C(=O)N[C@H]2CCC[C@@H]2O)c2ncccc12` [compound 26, N-[(1S,2S)-2-hydroxycyclopentyl]-5-methyl-6-[(4-pyrazol-1-ylphenyl)methyl]quinoline-8-carboxamide] are 81% and 958 nM.

Turning to `Cc1c(Cc2ccc(-n3cccn3)cc2)cc(C(=O)N[C@H]2CC[C@@H]2O)c2ncccc12` [compound 27, N-[(1S,2S)-2-hydroxycyclobutyl]-5-methyl-6-[(4-pyrazol-1-ylphenyl)methyl]quinoline-8-carboxamide], the Emax was found to be 73% and the EC50 stood at 1710 nM. As for `Cc1c(Cc2ccc(-n3cccn3)cc2)cc(C(=O)NC2CCOCC2)c2ncccc12` [compound 28, 5-methyl-6-[(4-pyrazol-1-ylphenyl)methyl]-N-tetrahydropyran-4-yl-quinoline-8-carboxamide], the Emax was found to be 41% and the EC50 turned out to be 2250 nM.

Consider `Cc1c(Cc2ccc(-c3ccn(C)n3)nc2)cc(C(=O)N[C@H]2CCOC[C@@H]2O)c2ncccc12` [compound 29, N-[(3R,4S)-3-hydroxytetrahydropyran-4-yl]-5-methyl-6-[[6-(1-methylpyrazol-3-yl)-3-pyridyl]methyl]quinoline-8-carboxamide], for which the Emax was 72% and the concentration giving a half-maximal response (EC50) was found to be 197 nM. In the case of `Cc1c(Cc2ccc(-c3ccn(C)n3)nc2)cc(C(=O)N[C@H]2CCCC[C@@H]2O)c2ncccc12` [compound 30, N-[(1S,2S)-2-hydroxycyclohexyl]-5-methyl-6-[[6-(1-methylpyrazol-3-yl)-3-pyridyl]methyl]quinoline-8-carboxamide], the Emax turned out to be 72% and the EC50 was 356 nM. Take `Cc1c(Cc2ccc(-c3ccn(C)n3)nc2)cc(C(=O)NC2CCOCC2)c2ncccc12` [compound 31, 5-methyl-6-[[6-(1-methylpyrazol-3-yl)-3-pyridyl]methyl]-N-tetrahydropyran-4-yl-quinoline-8-carboxamide]: the maximum response (Emax) came to 67% and the EC50 is 4390 nM. In the case of `Cc1nc(-c2ccc(Cc3cc(C(=O)N[C@H]4CCOC[C@@H]4O)c4ncccc4c3C)cc2)co1` [compound 32, N-[(3R,4S)-3-hydroxytetrahydropyran-4-yl]-5-methyl-6-[[4-(2-methyloxazol-4-yl)phenyl]methyl]quinoline-8-carboxamide], the Emax came to 69% and the EC50 was 336 nM.

Regarding `Cc1nc(-c2ccc(Cc3cc(C(=O)N[C@H]4CCCCC[C@@H]4O)c4ncccc4c3C)cc2)co1` [compound 33, N-[(1S,2S)-2-hydroxycycloheptyl]-5-methyl-6-[[4-(2-methyloxazol-4-yl)phenyl]methyl]quinoline-8-carboxamide], the Emax turned out to be 75% and the half-maximal effective concentration (EC50) was 2040 nM. Regarding `Cc1nc(-c2ccc(Cc3cc(C(=O)N[C@H]4CCCC[C@@H]4O)c4ncccc4c3C)cc2)co1` [compound 34, N-[(1S,2S)-2-hydroxycyclohexyl]-5-methyl-6-[[4-(2-methyloxazol-4-yl)phenyl]methyl]quinoline-8-carboxamide], the Emax was determined as 74% and the 50% effective concentration (EC50) was 562 nM. For the molecule `Cc1nc(-c2ccc(Cc3cc(C(=O)NC4CCOCC4)c4ncccc4c3C)cc2)co1` [compound 35, 5-methyl-6-[[4-(2-methyloxazol-4-yl)phenyl]methyl]-N-tetrahydropyran-4-yl-quinoline-8-carboxamide], the maximum response (Emax) stood at 38% and the EC50 came to 1370 nM.

Values taken from patent US20200131159A1, “POSITIVE ALLOSTERIC MODULATORS OF THE MUSCARINIC ACETYLCHOLINE RECEPTOR M1” (Vanderbilt University, priority 2018, published 2020).
